Data reported in ChEMBL document CHEMBL3885861, “Open TG-GATES”.

Organism: Rattus norvegicus
Assay: Open TG-GATES - Regimen: Daily Repeat
Type: toxicity, organism-based, Sprague-Dawley
Design: regimen Daily Repeat, gender Male, age 6 weeks
Conditions: in vivo, po, 100 mg/kg, route gavage, dose level Low; for APTT / Bas / Eos / Fbg / Hb / Ht / Lym / MCH / MCHC / MCV / Mono / Neu / PT / Plat / RBC / Ret / WBC: tissue Blood; for KIDNEY_L / KIDNEY_R / KIDNEY_TOTAL: tissue Kidney; for LIVER: tissue Liver; for A/G / ALP / ALT / AST / BUN / CRE / Ca / Cl / DBIL / GLC / IP / K / LDH / Na / PL / RALB / TBIL / TC / TG / TP / gamma-GTP: tissue Plasma

Structure (SMILES): CC(C)(S)[C@@H](N)C(=O)O [PENICILLAMINE]
- TERMINAL_BW (72 h, time 3 day): 236.4 g
- APTT (72 h, time 3 day): 16.9 s
- Bas (72 h, time 3 day): 0%
- Eos (72 h, time 3 day): 1%
- Fbg (72 h, time 3 day): 294.8 mg/dL
- Hb (72 h, time 3 day): 13.7 g/dL
- Ht (72 h, time 3 day): 41.6%
- Lym (72 h, time 3 day): 78.8%
- MCH (72 h, time 3 day): 20.9 pg
- MCHC (72 h, time 3 day): 33%
- MCV (72 h, time 3 day): 63.3 fL
- Mono (72 h, time 3 day): 2.8%
- Neu (72 h, time 3 day): 16.6%
- PT (72 h, time 3 day): 14.1 s
- Plat (72 h, time 3 day): 122 x10_4/uL
- RBC (72 h, time 3 day): 658.2 x10_4/ul
- Ret (72 h, time 3 day): 7.4%
- WBC (72 h, time 3 day): 84.7 x10_2/uL
- KIDNEY_L (72 h, time 3 day): 1 g
- KIDNEY_R (72 h, time 3 day): 1 g
- KIDNEY_TOTAL (72 h, time 3 day): 1.9 g
- LIVER (72 h, time 3 day): 10.8 g
- A/G (72 h, time 3 day): 0.9
- ALP (72 h, time 3 day): 1491 IU/L
- ALT (72 h, time 3 day): 40.2 IU/L
- AST (72 h, time 3 day): 69.8 IU/L
- BUN (72 h, time 3 day): 13 mg/dL
- CRE (72 h, time 3 day): 0.2 mg/dL
- Ca (72 h, time 3 day): 10.8 mg/dL
- Cl (72 h, time 3 day): 106.6 meq/L
- DBIL (72 h, time 3 day): 0.014 mg/dL
- GLC (72 h, time 3 day): 183.8 mg/dL
- IP (72 h, time 3 day): 7 mg/dL
- K (72 h, time 3 day): 4.1 meq/L
- LDH (72 h, time 3 day): 85 IU/L
- Na (72 h, time 3 day): 143.8 meq/L
- PL (72 h, time 3 day): 156 mg/dL
- RALB (72 h, time 3 day): 2.7 g/dL
- TBIL (72 h, time 3 day): 0.028 mg/dL
- TC (72 h, time 3 day): 80.8 mg/dL
- TG (72 h, time 3 day): 114.8 mg/dL
- TP (72 h, time 3 day): 5.7 g/dL
- gamma-GTP (72 h, time 3 day): 1.2 IU/L
- TERMINAL_BW ([…], time 7 day): 276.9 g
- TERMINAL_BW ([…], time 14 day): 325.3 g
- TERMINAL_BW ([…], time 28 day): 410.3 g
- APTT ([…], time 7 day): 17.9 s
- Bas ([…], time 7 day): 0.2%
- Eos ([…], time 7 day): 1%
- Fbg ([…], time 7 day): 305.6 mg/dL
- Hb ([…], time 7 day): 13.9 g/dL
- Ht ([…], time 7 day): 42.4%
- Lym ([…], time 7 day): 80.6%
- MCH ([…], time 7 day): 20.7 pg
- MCHC ([…], time 7 day): 32.9%
- MCV ([…], time 7 day): 63 fL
- Mono ([…], time 7 day): 2.4%
- Neu ([…], time 7 day): 14.6%
- PT ([…], time 7 day): 14.2 s
- Plat ([…], time 7 day): 127.2 x10_4/uL
- RBC ([…], time 7 day): 674.2 x10_4/ul
- Ret ([…], time 7 day): 5.7%
- WBC ([…], time 7 day): 102.7 x10_2/uL
- APTT ([…], time 14 day): 17.2 s
- Bas ([…], time 14 day): 0%
- Eos ([…], time 14 day): 1%
- Fbg ([…], time 14 day): 300.8 mg/dL
- Hb ([…], time 14 day): 14.8 g/dL
- Ht ([…], time 14 day): 43.6%
- Lym ([…], time 14 day): 82.4%
- MCH ([…], time 14 day): 20.7 pg
- MCHC ([…], time 14 day): 34%
- MCV ([…], time 14 day): 60.9 fL
- Mono ([…], time 14 day): 1.8%
- Neu ([…], time 14 day): 14%
- PT ([…], time 14 day): 13.8 s
- Plat ([…], time 14 day): 111.4 x10_4/uL
- RBC ([…], time 14 day): 716 x10_4/ul
- Ret ([…], time 14 day): 3.9%
- WBC ([…], time 14 day): 83.6 x10_2/uL
- APTT ([…], time 28 day): 18.8 s
- Bas ([…], time 28 day): 0%
- Eos ([…], time 28 day): 1.6%
- Fbg ([…], time 28 day): 313 mg/dL
- Hb ([…], time 28 day): 16.2 g/dL
- Ht ([…], time 28 day): 46.8%
- Lym ([…], time 28 day): 82.8%
- MCH ([…], time 28 day): 20 pg
- MCHC ([…], time 28 day): 34.6%
- MCV ([…], time 28 day): 57.7 fL
- Mono ([…], time 28 day): 1.8%
- Neu ([…], time 28 day): 13%
- PT ([…], time 28 day): 14.1 s
- Plat ([…], time 28 day): 101.2 x10_4/uL
- RBC ([…], time 28 day): 812.4 x10_4/ul
- Ret ([…], time 28 day): 2.2%
- WBC ([…], time 28 day): 93.4 x10_2/uL
- KIDNEY_L ([…], time 7 day): 1.1 g
- KIDNEY_R ([…], time 7 day): 1.1 g
- KIDNEY_TOTAL ([…], time 7 day): 2.3 g
- KIDNEY_L ([…], time 14 day): 1.3 g
- KIDNEY_R ([…], time 14 day): 1.3 g
- KIDNEY_TOTAL ([…], time 14 day): 2.6 g
- KIDNEY_L ([…], time 28 day): 1.4 g
- KIDNEY_R ([…], time 28 day): 1.4 g
- KIDNEY_TOTAL ([…], time 28 day): 2.8 g
- LIVER ([…], time 7 day): 12.9 g
- LIVER ([…], time 14 day): 14.2 g
- LIVER ([…], time 28 day): 15.7 g
- A/G ([…], time 7 day): 0.9
- ALP ([…], time 7 day): 1699 IU/L
- ALT ([…], time 7 day): 43.4 IU/L
- AST ([…], time 7 day): 66.2 IU/L
- BUN ([…], time 7 day): 17 mg/dL
- CRE ([…], time 7 day): 0.2 mg/dL
- Ca ([…], time 7 day): 10.9 mg/dL
- Cl ([…], time 7 day): 104.2 meq/L
- DBIL ([…], time 7 day): 0.01 mg/dL
- GLC ([…], time 7 day): 184 mg/dL
- IP ([…], time 7 day): 7.5 mg/dL
- K ([…], time 7 day): 3.9 meq/L
- LDH ([…], time 7 day): 80.6 IU/L
- Na ([…], time 7 day): 142.2 meq/L
- PL ([…], time 7 day): 167.8 mg/dL
- RALB ([…], time 7 day): 2.7 g/dL
- TBIL ([…], time 7 day): 0.028 mg/dL
- TC ([…], time 7 day): 85.2 mg/dL
- TG ([…], time 7 day): 116.8 mg/dL
- TP ([…], time 7 day): 5.8 g/dL
- gamma-GTP ([…], time 7 day): 1.2 IU/L
- A/G ([…], time 14 day): 0.9
- ALP ([…], time 14 day): 1443.4 IU/L
- ALT ([…], time 14 day): 42.8 IU/L
- AST ([…], time 14 day): 61.6 IU/L
- BUN ([…], time 14 day): 15 mg/dL
- CRE ([…], time 14 day): 0.2 mg/dL
- Ca ([…], time 14 day): 10.9 mg/dL
- Cl ([…], time 14 day): 104.2 meq/L
- DBIL ([…], time 14 day): 0.012 mg/dL
- GLC ([…], time 14 day): 194.4 mg/dL
- IP ([…], time 14 day): 6.7 mg/dL
- K ([…], time 14 day): 3.9 meq/L
- LDH ([…], time 14 day): 89 IU/L
- Na ([…], time 14 day): 142.4 meq/L
- PL ([…], time 14 day): 178.2 mg/dL
- RALB ([…], time 14 day): 2.8 g/dL
- TBIL ([…], time 14 day): 0.028 mg/dL
- TC ([…], time 14 day): 85 mg/dL
- TG ([…], time 14 day): 171.6 mg/dL
- TP ([…], time 14 day): 6 g/dL
- gamma-GTP ([…], time 14 day): 1 IU/L
- A/G ([…], time 28 day): 0.9
- ALP ([…], time 28 day): 1085 IU/L
- ALT ([…], time 28 day): 35 IU/L
- AST ([…], time 28 day): 57.2 IU/L
- BUN ([…], time 28 day): 16.6 mg/dL
- CRE ([…], time 28 day): 0.3 mg/dL
- Ca ([…], time 28 day): 10.9 mg/dL
- Cl ([…], time 28 day): 105.8 meq/L
- DBIL ([…], time 28 day): 0.01 mg/dL
- GLC ([…], time 28 day): 179.4 mg/dL
- IP ([…], time 28 day): 6.2 mg/dL
- K ([…], time 28 day): 3.9 meq/L
- LDH ([…], time 28 day): 58 IU/L
- Na ([…], time 28 day): 144 meq/L
- PL ([…], time 28 day): 159.8 mg/dL
- RALB ([…], time 28 day): 2.9 g/dL
- TBIL ([…], time 28 day): 0.066 mg/dL
- TC ([…], time 28 day): 77.2 mg/dL
- TG ([…], time 28 day): 139.2 mg/dL
- TP ([…], time 28 day): 6.3 g/dL
- gamma-GTP ([…], time 28 day): 1.2 IU/L
